According to US20240114940A1, “SACCHARIDE COMPOSITIONS HAVING SUCROSE-LIKE CHARACTERISTICS AND RELATED METHODS” (priority 2021, published 2024):

Legend:
[1] = Breakdown products by GCMS after Maillard reaction in the presence of Leucine; assay type: physicochemical; details: 160° C.
Experimental: (§1) Controls were prepared addition of 1 mL of pH 7 buffer to the amino acids. The samples were rapidly heated to 160° C. and held at this temperature for 10 min. Samples were rapidly cooled afterwards, and absorbance at 500 nm was measured for each reaction mixture. Volatiles were analysed using gas chromatography mass spectrometry (GCMS) analysis. An Agilent Technologies 5975B Inert XL MSD gas chromatography, single quadruple mass spectrometer was used for analysis of volatiles. Samples were added to separate GCMS headspace vials and weighed. 0.03 g of 0.01% 3-heptanone in water was added and the vial was sealed for GCMS solid phase micro extraction (SPME) analysis. Samples were analysed in a randomized order. Samples were incubated and agitated at 250 RPM, at 60° C. for 15 min prior to SPME analysis of volatiles. The SPME fibre (50/30 DVB/CAR/PDMS, 23 Ga) extracted for 10 min, then thermally desorbed at 250° C. for 5 min. A 30 m×0.25 mm×0.25 μm HP-5MS column was used (Phenomenex, UK). Oven temperature settings: 31° C.-5 min, 5° C./min to 150° C., 30° C./min to 240° C. Inlet settings: 250° C., pressure 10.4 psi, flow 11.2 mL/min, split ratio 7:1. MS operated in full scan mode from 40 to 400 m/z with a scan time of 0.2s. The peak area of the aroma compounds was compared to the peak of the internal standard 3-heptanone and corrected for the weight of the sample.
(§2) The concentration of the different classes of Maillard reaction breakdown products is presented in Tables 9B-E. The same data as Tables 9B-E is also presented in FIG. 27. Concentrations are in parts per billion of the difference non-enzymatic breakdown products for the different compositions at 160° C. analysed by GCMS.

[2] = Breakdown products by GCMS after Maillard reaction in the presence of Tryptophan; assay type: physicochemical; details: with Tryptophan, pH 7, 160° C., 10 min
Experimental: as §1, §2

[3] = Carbonyls/ketones, Maillard reaction in the presence of Leucine, GCMS
[4] = Furans, Maillard reaction in the presence of Leucine, GCMS
[5] = Pyrazines, Maillard reaction in the presence of Leucine, GCMS

- 2-Butanone concentration [1, 3]: 9.73 ppb
- 2-Propanone, 1-hydroxy- concentration [1, 3]: 45.73 ppb
- Diacetyl (2,3-Butanedione) concentration [1, 3]: 41.79 ppb
- Furan, 2-methyl- concentration [1, 4]: 0.42 ppb
- Furfural concentration [1, 4]: 0.16 ppb
- Pyrazine, 2,5-diethyl- concentration [1, 5]: 24.28 ppb
- Pyrazine, 2,5-dimethyl- concentration [1, 5]: 2111.75 ppb
- Pyrazine, 2-ethyl-5-methyl- concentration [1, 5]: 554.43 ppb
- Pyrazine, ethyl- concentration [1, 5]: 8.8 ppb
- Pyrazine, methyl- concentration [1, 5]: 20.49 ppb
- Isovaleraldehyde (Butanal, 3-methyl-) concentration ([1]; Strecker aldehydes, Maillard reaction in the presence of Leucine, GCMS): 3412.25 ppb
- Isovaleraldehyde concentration ([1]; with leucine): 3400 ppb
- Concentration of 2-Butanone [2]: 3.16 ppb
- Concentration of 2-Propanone, 1-hydroxy- [2]: 20.48 ppb
- Concentration of Diacetyl (2,3-Butanedione) [2]: 6.99 ppb
- Concentration of Furan, 2-methyl- [2]: 0.25 ppb
- Concentration of Furan, 2-pentyl- [2]: 0.03 ppb
- Concentration of Furfural [2]: 0.03 ppb
- Concentration of Indole [2]: 20.81 ppb
- Concentration of Pyrazine, 2,5-diethyl- [2]: 5.74 ppb
- Concentration of Pyrazine, 2,5-dimethyl- [2]: 778.85 ppb
- Concentration of Pyrazine, 2-ethyl-5-methyl- [2]: 201.9 ppb
- Concentration of Pyrazine, ethyl- [2]: 0.19 ppb
- Concentration of Pyrazine, methyl- [2]: 0.56 ppb
SMILES: OC[C@H]1O[C@@](CO)(O[C@H]2O[C@H](CO)[C@@H](O)[C@H](O)[C@H]2O)[C@@H](O)[C@@H]1O [Sucrose]
